Test results: article PMC10991509, “A phase I study of ATR inhibitor gartisertib (M4344) as a single agent and in combination with carboplatin in patients with advanced solid tumours” (British Journal of Cancer, 2024)

What was measured:
UGT1A1 = target: T1, UGT1A1 (Homo sapiens, UniProt P22309); assay: UGT1A1 inhibition in human liver microsomes; assay type: in vitro ADME; conditions: value (standard error)
T1 construct: from tissue; host or cells: human liver microsomes
T1 sequence (P22309 26-533): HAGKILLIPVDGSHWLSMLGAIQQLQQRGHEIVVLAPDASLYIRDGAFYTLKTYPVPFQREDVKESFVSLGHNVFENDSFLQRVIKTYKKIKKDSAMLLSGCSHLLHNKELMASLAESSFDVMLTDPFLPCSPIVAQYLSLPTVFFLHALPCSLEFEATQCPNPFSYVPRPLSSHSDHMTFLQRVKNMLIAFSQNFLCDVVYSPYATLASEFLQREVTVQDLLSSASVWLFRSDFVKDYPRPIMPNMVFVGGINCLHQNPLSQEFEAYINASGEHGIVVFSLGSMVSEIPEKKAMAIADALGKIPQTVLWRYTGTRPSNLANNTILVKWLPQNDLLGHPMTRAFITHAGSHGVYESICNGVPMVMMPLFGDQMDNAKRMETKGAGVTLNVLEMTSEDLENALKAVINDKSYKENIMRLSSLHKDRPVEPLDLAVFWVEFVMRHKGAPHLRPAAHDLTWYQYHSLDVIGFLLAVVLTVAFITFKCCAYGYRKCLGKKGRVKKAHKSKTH

advanced solid tumours = assay: Antitumour activity (RECIST v1.1); assay type: in vivo, human
Excerpt: The secondary objectives for cohorts A, A2, and B1 were to assess antitumour activity and PK. Endpoints associated with antitumour activity included confirmed best overall response (BOR), according to RECIST v1.1. PK endpoints included PK parameter estimates, derived from plasma concentration-time data. Please see the Supplementary Materials for details on further PK endpoints and assessments as well as the PK assessment schedule (Supplementary Table S2).
In cohort C, the primary objectives were to evaluate safety, tolerability, and antitumour activity of gartisertib monotherapy in patients with LOF mutations in ARID1A (cohort C1), ATRX and/or DAXX (cohort C2), or ATM (cohort C3). The primary endpoints included safety (treatment-emergent AEs [TEAEs] and treatment-related TEAEs; laboratory abnormalities; clinically significant abnormal vital signs; and clinically significant abnormal ECGs and antitumour activity (objective response [OR], defined as confirmed BOR of complete response [CR] or partial response [PR], according to RECIST v1.1). Secondary endpoints included duration of response; progression-free survival [PFS]) as well as PK parameter estimates of gartisertib in patients with LOF mutations. The Supplementary Materials provide further information on efficacy assessments and definitions.
In cohorts A, A2, B1, and C, antitumor activity was assessed in patients with measurable disease with standard criteria (Response Evaluation Criteria in Solid Tumors version 1.1 [RECIST v1.1]). In patients with prostate cancer, Prostate Cancer Clinical Trials Working Group 2 (PCWG2) criteria were used. Patients underwent an imaging scan at screening to document extent of initial disease and in all cohorts of the study, patients underwent repeat imaging scans. Imaging scans were locally assessed for all study cohorts. Bone scans were performed as were evaluations of serum […] in patients with ovarian cancer and serum prostate-specific antigen in patients with prostate cancer.
In addition, for cohort C, tumor assessments according to RECIST v1.1 were performed at baseline and at completion of every two cycles of treatment for the first six cycles and then every three cycles thereafter until disease progression or initiation of a new anticancer therapy line. Objective response, best overall response, duration of response and progression-free survival will be determined by the investigator based on these tumor assessments, with objective responses needing to be confirmed at a scan no fewer than 4 weeks after the original evaluation. Independent review may be performed if necessary.
Objective response was defined as a confirmed assessment of complete response or partial response by the investigator using RECIST v1.1. Confirmed best overall response was defined as the best confirmed response from start of treatment. Tumor assessments performed after start of further anticancer treatment line were not used to determine best overall response. Progression-free survival was defined as the time between the start of study treatment to progressive disease (PD) or death (in case PD is not observed prior to death).

Nc1nn2cc(F)cnc2c1C(=O)Nc1cncc(F)c1N1CCC(C(=O)N2CCN(C3COC3)CC2)CC1 [gartisertib, Gartisertib]
IC50 (UGT1A1): 8.36 µM | cBOR Not evaluable (advanced solid tumours; Cohort A2, 100 mg BID (N=7)): 2 (28.6) n patients (%) | cBOR Partial response (advanced solid tumours; Cohort A2, 100 mg BID (N=7)): 0 (0.0) n patients (%) | cBOR Progressive disease (advanced solid tumours; Cohort A2, 100 mg BID (N=7)): 4 (57.1) n patients (%) | cBOR Stable disease (advanced solid tumours; Cohort A2, 100 mg BID (N=7)): 1 (14.3) n patients (%) | cBOR Not evaluable (advanced solid tumours; Cohort A2, 150 mg QD (N=4)): 0 (0.0) n patients (%) | cBOR Partial response (advanced solid tumours; Cohort A2, 150 mg QD (N=4)): 0 (0.0) n patients (%) | cBOR Progressive disease (advanced solid tumours; Cohort A2, 150 mg QD (N=4)): 3 (75.0) n patients (%) | cBOR Stable disease (advanced solid tumours; Cohort A2, 150 mg QD (N=4)): 1 (25.0) n patients (%) | cBOR Not evaluable (advanced solid tumours; Cohort A2, 250 mg QD (N=7)): 0 (0.0) n patients (%) | cBOR Partial response (advanced solid tumours; Cohort A2, 250 mg QD (N=7)): 0 (0.0) n patients (%) | cBOR Progressive disease (advanced solid tumours; Cohort A2, 250 mg QD (N=7)): 3 (42.9) n patients (%) | cBOR Stable disease (advanced solid tumours; Cohort A2, 250 mg QD (N=7)): 4 (57.1) n patients (%) | cBOR Not evaluable (advanced solid tumours; Cohort A2, 350 mg QD (N=5)): 0 (0.0) n patients (%) | cBOR Partial response (advanced solid tumours; Cohort A2, 350 mg QD (N=5)): 0 (0.0) n patients (%) | cBOR Progressive disease (advanced solid tumours; Cohort A2, 350 mg QD (N=5)): 3 (60.0) n patients (%) | cBOR Stable disease (advanced solid tumours; Cohort A2, 350 mg QD (N=5)): 2 (40.0) n patients (%) | cBOR Not evaluable (advanced solid tumours; Cohort A, 10 mg BIW (N=1)): 1 (100.0) n patients (%) | cBOR Partial response (advanced solid tumours; Cohort A, 10 mg BIW (N=1)): 0 (0.0) n patients (%) | cBOR Progressive disease (advanced solid tumours; Cohort A, 10 mg BIW (N=1)): 0 (0.0) n patients (%) | cBOR Stable disease (advanced solid tumours; Cohort A, 10 mg BIW (N=1)): 0 (0.0) n patients (%) | cBOR Not evaluable (advanced solid tumours; Cohort A, 20 mg BIW (N=1)): 0 (0.0) n patients (%) | cBOR Partial response (advanced solid tumours; Cohort A, 20 mg BIW (N=1)): 0 (0.0) n patients (%) | cBOR Progressive disease (advanced solid tumours; Cohort A, 20 mg BIW (N=1)): 0 (0.0) n patients (%) | cBOR Stable disease (advanced solid tumours; Cohort A, 20 mg BIW (N=1)): 1 (100.0) n patients (%) | cBOR Not evaluable (advanced solid tumours; Cohort A, 40 mg BIW (N=1)): 0 (0.0) n patients (%) | cBOR Partial response (advanced solid tumours; Cohort A, 40 mg BIW (N=1)): 0 (0.0) n patients (%) | cBOR Progressive disease (advanced solid tumours; Cohort A, 40 mg BIW (N=1)): 1 (100.0) n patients (%) | cBOR Stable disease (advanced solid tumours; Cohort A, 40 mg BIW (N=1)): 0 (0.0) n patients (%) | cBOR Not evaluable (advanced solid tumours; Cohort A, 80 mg BIW (N=1)): 0 (0.0) n patients (%) | cBOR Partial response (advanced solid tumours; Cohort A, 80 mg BIW (N=1)): 0 (0.0) n patients (%) | cBOR Progressive disease (advanced solid tumours; Cohort A, 80 mg BIW (N=1)): 1 (100.0) n patients (%) | cBOR Stable disease (advanced solid tumours; Cohort A, 80 mg BIW (N=1)): 0 (0.0) n patients (%) | cBOR Not evaluable (advanced solid tumours; Cohort A, 160 mg BIW (N=1)): 0 (0.0) n patients (%) | cBOR Partial response (advanced solid tumours; Cohort A, 160 mg BIW (N=1)): 0 (0.0) n patients (%) | cBOR Progressive disease (advanced solid tumours; Cohort A, 160 mg BIW (N=1)): 1 (100.0) n patients (%) | cBOR Stable disease (advanced solid tumours; Cohort A, 160 mg BIW (N=1)): 0 (0.0) n patients (%) | cBOR Not evaluable (advanced solid tumours; Cohort A, 300 mg BIW (N=1)): 0 (0.0) n patients (%) | cBOR Partial response (advanced solid tumours; Cohort A, 300 mg BIW (N=1)): 0 (0.0) n patients (%) | cBOR Progressive disease (advanced solid tumours; Cohort A, 300 mg BIW (N=1)): 1 (100.0) n patients (%) | cBOR Stable disease (advanced solid tumours; Cohort A, 300 mg BIW (N=1)): 0 (0.0) n patients (%) | cBOR Not evaluable (advanced solid tumours; Cohort A, 450 mg BIW (N=3)): 0 (0.0) n patients (%) | cBOR Partial response (advanced solid tumours; Cohort A, 450 mg BIW (N=3)): 0 (0.0) n patients (%) | cBOR Progressive disease (advanced solid tumours; Cohort A, 450 mg BIW (N=3)): 1 (33.3) n patients (%) | cBOR Stable disease (advanced solid tumours; Cohort A, 450 mg BIW (N=3)): 2 (66.7) n patients (%) | cBOR Not evaluable (advanced solid tumours; Cohort A, 700 mg BIW (N=6)): 2 (33.3) n patients (%) | cBOR Partial response (advanced solid tumours; Cohort A, 700 mg BIW (N=6)): 0 (0.0) n patients (%) | cBOR Progressive disease (advanced solid tumours; Cohort A, 700 mg BIW (N=6)): 2 (33.3) n patients (%) | cBOR Stable disease (advanced solid tumours; Cohort A, 700 mg BIW (N=6)): 2 (33.3) n patients (%) | cBOR Not evaluable (advanced solid tumours; Cohort A, 1050 mg BIW (N=7)): 1 (14.3) n patients (%) | cBOR Partial response (advanced solid tumours; Cohort A, 1050 mg BIW (N=7)): 0 (0.0) n patients (%) | cBOR Progressive disease (advanced solid tumours; Cohort A, 1050 mg BIW (N=7)): 5 (71.4) n patients (%) | cBOR Stable disease (advanced solid tumours; Cohort A, 1050 mg BIW (N=7)): 1 (14.3) n patients (%) | cBOR Not evaluable (advanced solid tumours; Cohort A, 1200 mg BIW (N=4)): 2 (50.0) n patients (%) | cBOR Partial response (advanced solid tumours; Cohort A, 1200 mg BIW (N=4)): 0 (0.0) n patients (%) | cBOR Progressive disease (advanced solid tumours; Cohort A, 1200 mg BIW (N=4)): 1 (25.0) n patients (%) | cBOR Stable disease (advanced solid tumours; Cohort A, 1200 mg BIW (N=4)): 1 (25.0) n patients (%) | cBOR Not evaluable (advanced solid tumours; Cohort C, 250 mg QD (N=13)): 2 (15.4) n patients (%) | cBOR Partial response (advanced solid tumours; Cohort C, 250 mg QD (N=13)): 0 (0.0) n patients (%) | cBOR Progressive disease (advanced solid tumours; Cohort C, 250 mg QD (N=13)): 8 (61.5) n patients (%) | cBOR Stable disease (advanced solid tumours; Cohort C, 250 mg QD (N=13)): 3 (23.1) n patients (%) | BOR of SD (advanced solid tumours; cohort A2 (full analysis set 23)): 34.8% | BOR of SD (advanced solid tumours; cohort A (full analysis set 26)): 26.9% | BOR of SD (advanced solid tumours; cohort C (full analysis set 13)): 23.1% | median PFS interval (advanced solid tumours; cohort C, 95% CI 0.8, 2.1): 1.6 months | disease control according to selected biomarker status (ARID1A, ATRX/DAXX, ATM) (advanced solid tumours; cohorts A2 and C): No difference in disease control | patients with SD for >6 months (advanced solid tumours; three patients across all study cohorts): 3.1%
